Measurements reported in US6506734B1, “20(S) camptothecin glycoconjugates” (Bayer Aktiengesellschaft, priority 1997, dated 2003).
Several values for one entry are separate records, joined by “and”; a condition that tells them apart may be missing. Equal values may be shown once. Where a name gives a salt, the structure may show the parent alone. Read-outs that look alike come from different tables or passages of the source.

Legend:
[1] = tested on: HT 29; assay: Growth inhibition test (MTT) for cytotoxic properties, HT 29; details: read-out: IC50/nM HT 29
Procedure: (§1) The human large intestine cell lines SW 480 and HT 29 (ATCC No. CCL 228 and HBT 38) and the mouse melanoma cell line B16F10 (CRL 6475) were grown in Roux dishes in RPMI 1640 medium with addition of 10% FCS. They were then trypsinized and taken up in RPMI plus 10% FCS to a cell count of 50,000 cells/ml for SW 480 and HT 29 and 20,000 cells for B16F10. 100 μl of cell suspension/well were added to a 96 microwell plate and incubated for 1 day at 37° C. in a CO2 incubator. A further 100 μl of RPMI medium and 1 μl of DMSO containing the test substances were then added. The growth was checked after day 6. To do this, 25 μl of MTT solution (3-(4,5-dimethylthiazol-2-yl)-2,5-diphenyltetrazolium bromide) having a starting concentration of 5 mg/ml of H2O were added to each microwell. Incubation was carried out for 5 hours in a CO2 incubator at 37° C. The medium was then aspirated and 100 μl of i-propanol/well were added. After shaking for 30 min with 100 μl of H2O, the extinction was measured at 595 nm using a multiplate reader (Bio.) 3550 UV.

[2] = tested on: SW 480; assay: Growth inhibition test (MTT) for cytotoxic properties, SW 480; details: read-out: IC50/nM SW 480
Procedure: as §1

[3] = tested on: B16F10; assay: Growth inhibition test (MTT) for cytotoxic properties, B16F10; details: read-out: IC50/nM B16F10
Procedure: as §1

[4] = tested on: large-cell human lung tumour xenograft LXFL 529; assay: In vivo inhibition of tumour growth in the nude mouse model; details: for Survival time: LXFL 529 nude mice, individual animals; for therapeutic efficacy (tumour remission): maximum tolerable dose (MTD) and ½ MTD, LXFL 529
Procedure: For all in vivo experiments for investigation of the inhibition of tumour growth, athymic nude mice (NMRI nu/nu strain) were used. The selected large-cell lung carcinoma LXFL 529 was grown by serial passage in nude mice. The human origin of the tumour was confirmed by isoenzymatic and immunohistochemical methods.
The tumour was implanted subcutaneously into both flanks of small nu/nu nude mice 6 to 8 weeks old. […] The mice were assigned to the treatment group and the control group (5 mice per group with 8-10 assessable tumours) by randomization.
The size of the tumours was measured in two dimensions by means of a slide gauge. The tumour volume, which correlated well with the cell count, was then used for all evaluations. The volume was calculated according to the formula “length×breadth×breadth/2” ([a×b^2]/2, a and b represent two diameters at right angles).
The values of the relative tumour volume (RTV) were calculated for each individual tumour by dividing the tumour size on day X with the tumour size on day 0 (at the time of randomization). The mean values of the RTV were then used for the further evaluation.
The inhibition of the tumour volume (relative tumour volume of the test group/control group×100, T/C in %) was the final measured value.
The administration of the compounds was carried out intravenously (i.v.), for example on day 0, 1 and 2 after randomization, the total dose per day being split over 2 administrations.

[5] = tested on: mouse bone marrow stem cells; assay: Inhibition of the CSF-induced proliferation of mouse bone marrow stem cells; details: recombinant murine GM-CSF, 7 days, colony count
Procedure: Bone marrow cells were washed out of mice femurs. 10^5 cells were incubated at 37° C. and 7% CO2 in McCoy 5A medium (0.3% agar) together with recombinant murine GM-CSF (Genzyme; stem cell colony formation) and the substances (10^−4 to 100 μg/ml). 7 days later, the colonies (<50 cells) and clusters (17-50 cells) were counted.

[6] = 16 mg/kg/day i.v., LXFL 529, optimum on day 28
[7] = HT 29 cells, MTT, growth checked after day 6
[8] = SW 480 cells, MTT, growth checked after day 6
[9] = B16F10 cells, MTT, growth checked after day 6

Structure (SMILES) | IC50 ([1]; Homo sapiens, HT-29, 144 h) [nM] | IC50 ([2]; Homo sapiens, SW480, 144 h) [nM] | IC50 ([3]; Mus musculus, B16-F10, 144 h) [nM] | further results
CC[C@@]1(OC(=O)[C@H](CC(C)C)NC(=O)[C@H](CCCCN)NC(=S)Nc2ccc(OC3O[C@@H](C)[C@@H](O)[C@@H](OC)[C@@H]3O)cc2)C(=O)OCc2c1cc1n(c2=O)Cc2cc3ccccc3nc2-1 (stereo partly drawn) [Example 7, 20(S)-20-O-{N^α-O-(3-O-Methyl-β-L-fucopyranosyl)-4-hydroxy-phenylamino-thiocarbonyl]-L-lysyl-L-leucyl}-camptothecin, hydrochloride] | 30 | 80 | 20 | –
CC[C@@]1(OC(=O)[C@@H](CC(C)C)NC(=O)[C@H](CCCCN)NC(=S)Nc2ccc(OC3O[C@@H](C)[C@@H](O)[C@@H](OC)[C@@H]3O)cc2)C(=O)OCc2c1cc1n(c2=O)Cc2cc3ccccc3nc2-1 (stereo partly drawn) [Example 6, 20(S)-20-O-{N^α-[O-(3-O-Methyl-β-L-fuopyranosyl)-4-hydroxy-phenylamino-thiocarbonyl]-L-lysyl-D-leucyl}-camptothecin, hydrochloride] | 30 | 60 | 300 | –
CCC1(OC(=O)C(NC(=O)[C@H](Cc2c[nH]cn2)NC(=S)Nc2ccc(OC3OC(C)C(O)C(OC)C3O)cc2)C(C)C)C(=O)OCc2c1cc1n(c2=O)Cc2cc3ccccc3nc2-1.Cl (stereo partly drawn) [Example 2, 20(S)-20-O-{N-[O-(3-O-Methyl-β-L-fucopyranosyl)-4-hydroxy-phenylamino-thiocarbonyl]-L-histidyl-L/D-valyl}-camptothecin, hydrochloride] | 40 | 100 | 300 | opt. T/C [4, 6]: 3.3%; Survival time ([4]; 16 mg/kg/day i.v.): >28 days; Relative body weight on day 7 [% of day 0] ([4]; 16 mg/kg/day i.v.): 103 % of day 0; opt. T/C ([4]; 32 mg/kg/day i.v., LXFL 529, optimum on day 21): 0%; Survival time ([4]; 32 mg/kg/day i.v., hydrochloride): >28 days (3×) and 20 days and 1 days; Relative body weight on day 7 [% of day 0] ([4]; 32 mg/kg/day i.v.): 98 % of day 0; therapeutic efficacy (tumour remission) [4]: complete to marked tumour remission
CC[C@@]1(OC(=O)[C@@H](CC(C)C)NC(=O)[C@H](CCCN)NC(=S)Nc2ccc(OC3O[C@@H](C)[C@@H](O)[C@@H](OC)[C@@H]3O)cc2)C(=O)OCc2c1cc1n(c2=O)Cc2cc3ccccc3nc2-1 (stereo partly drawn) [Example 4, 20(S)-20-O-{N^α-[O-(3-O-Methyl-β-L-fucopyranosyl)-4-hydroxy-phenylamino-thiocarbonyl]-L-ornithyl-D-leucyl}-camptothecin, hydrochloride] | 20 | 100 | 500 | –
CC[C@@]1(OC(=O)C(CC(C)C)NC(=O)[C@H](CCCCN)NC(=S)Nc2ccc(OC3O[C@@H](C)[C@@H](O)[C@@H](OC)[C@@H]3O)cc2)C(=O)OCc2c1cc1n(c2=O)Cc2cc3ccccc3nc2-1 (stereo partly drawn) [Example 1, 20(S)-20-O-{N^α-[O-(3-O-Methyl-β-L-fucopyranosyl)-4-hydroxy-phenylamino-thiocarbonyl]-L-lysyl-L/D-leucyl}-camptothecin, hydrochloride] | 40 | 70 | 200 | opt. T/C ([4]; 8 mg/kg/day i.v., LXFL 529, optimum on day 14): 0%; Survival time ([4]; 8 mg/kg/day i.v., hydrochloride): 0 days and >28 days (4×); Relative body weight on day 7 [% of day 0] ([4]; 8 mg/kg/day i.v.): 95 % of day 0; opt. T/C [4, 6]: 0%; Survival time ([4]; 16 mg/kg/day i.v.): >28 days; Relative body weight on day 7 [% of day 0] ([4]; 16 mg/kg/day i.v.): 95 % of day 0; tumour remission (FIG. 1) ([4]; dose range from 16 to 8 mg/kg, therapy schedule day 1-3 i.v., further experiment): long-lasting complete remission; therapeutic efficacy (tumour remission) [4]: complete to marked tumour remission
CC[C@@]1(OC(=O)[C@@H](CC(C)C)NC(=O)[C@@H](CCCCN)NC(=S)Nc2ccc(OC3O[C@@H](C)[C@@H](O)[C@@H](OC)[C@@H]3O)cc2)C(=O)OCc2c1cc1n(c2=O)Cc2cc3ccccc3nc2-1 (stereo partly drawn) [Example 3, 20(S)-20-O-{N^α-[O-(3-O-Methyl-β-L-fucopyranosyl)-4-hydroxy-phenylamino-thiocarbonyl]-D-lysyl-D-leucyl}-camptothecin, hydrochloride] | 20 | 100 | 500 | –
CC[C@@]1(O)C(=O)OCc2c1cc1n(c2=O)Cc2cc3ccccc3nc2-1 [20(S)-Camptothecin, reference compound] | – | – | – | IC50 [1, 7]: 5 nM; IC50 [2, 8]: 10 nM; IC50 [3, 9]: 20 nM; Inhibition of the CSF-induced proliferation of mouse bone marrow stem cells IC50 [5]: 0.05 ng/mL
CC[C@@]1(OC(=O)[C@H](CC(C)C)NC(=O)[C@H](CCCNC(=N)N)NC(=S)Nc2ccc(OC3O[C@@H](C)[C@@H](O)[C@@H](OC)[C@@H]3O)cc2)C(=O)OCc2c1cc1n(c2=O)Cc2cc3ccccc3nc2-1 (stereo partly drawn) [Example 10, 20(S)-20-O-{N^α-[O-(3-O-Methyl-β-L-fucopyranosyl)-4-hydrdxy-phenylamino-thiocarbonyl]-L-arginyl-L-leucyl}-camptothecin] | 50 | 100 | 300 | –
CC[C@@]1(OC(=O)[C@@H](CC(C)C)NC(=O)[C@H](CCCNC(=N)N)NC(=S)Nc2ccc(OC3O[C@@H](C)[C@@H](O)[C@@H](OC)[C@@H]3O)cc2)C(=O)OCc2c1cc1n(c2=O)Cc2cc3ccccc3nc2-1 (stereo partly drawn) [Example 5, 20(S)-20-O-{N^α-[O-(3-O-Methyl-β-L-fucopyranosyl)-4-hydroxy-phenylamino-thiocarbonyl]-L-arginyl-D-leucyl}-camptothecin] | 50 | 80 | 200 | –
CC[C@@]1(OC(=O)[C@@H](NC(=O)[C@H](CCCCN)NC(=S)Nc2ccc(OC3O[C@@H](C)[C@@H](O)[C@@H](OC)[C@@H]3O)cc2)C(C)C)C(=O)OCc2c1cc1n(c2=O)Cc2cc3ccccc3nc2-1 (stereo partly drawn) [Example 8, 20(S)-20-O-{N^α-[-(3-O-Methyl-β-L-fucopyranosyl)-4-hydroxy-phenylamino-thiocarbonyl]-L-lysyl-L-valyl}-camptothecin, hydrochloride] | 100 | 200 | 800 | –
CC[C@@]1(OC(=O)[C@@H](NC(=O)[C@H](Cc2cnc[nH]2)NC(=S)Nc2ccc(O[C@H]3O[C@@H](C)[C@@H](O)[C@@H](OC)[C@@H]3O)cc2)C(C)C)C(=O)OCc2c1cc1n(c2=O)Cc2cc3ccccc3nc2-1.Cl [Example 9, 20(S)-20-O-{N^α-[O-(3-O-Methyl-β-L-fucopyranosyl)-4-hydroxy-phenylamino-thiocarbonyl]-L-histidyl-L-valyl}-camptothecin, hydrochloride] | – | – | – | IC50 [1, 7]: 70 nM; IC50 [2, 8]: 200 nM; IC50 [3, 9]: 400 nM; Inhibition of the CSF-induced proliferation of mouse bone marrow stem cells IC50 [5]: 15 ng/mL
